The supplement of paper PMC10307832

Legend:
Assay in all cases: relative viability (nuclei count vs DMSO), 5 days (fraction); higher = more cells survive
[1] = compound: Cn1cncc1[C@@](N)(c1ccc(Cl)cc1)c1ccc2c(c1)c(-c1cccc(Cl)c1)cc(=O)n2C [Tipifarnib]
Summary of the method: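 Viability was defined as treated-well nuclei divided by vehicle-well nuclei, with the median taken over replicate plates. Cells from lung cancer lines sat overnight at 37 °C in 1536-well plates, received five √10-spaced library-drug doses by pinning on vehicle-anchored plates, and grew 5 days without medium change before one-step fixation, permeabilisation and Hoechst staining, 4× imaging and MetaXpress nuclear counts. Only plates with control CV under 25% and at least one doubling were kept.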

[2] = compound: Cn1cncc1[C@@](N)(c1ccc(Cl)cc1)c1ccc2c(c1)c(-c1cccc(Cl)c1)cc(=O)n2C [Tipifarnib] + Cc1cc(Nc2cc(N3CCN(C)CC3)nc(Sc3ccc(NC(=O)C4CC4)cc3)n2)n[nH]1 [Tozasertib] (partner 0.1 µM)
Summary of the method: (§1)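 Dosing by pin tool came one day after lung cancer cell lines were seeded in 1536-well plates, using either one drug or a fixed anchor-drug dose plus five library-drug doses (not always all listed) in √10 steps. After 5 days, nuclei were counted on 4× images. Relative viability is treated-well nuclei count divided by vehicle-well nuclei count, and values are medians of duplicate plates.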

[3] = compound: Cn1cncc1[C@@](N)(c1ccc(Cl)cc1)c1ccc2c(c1)c(-c1cccc(Cl)c1)cc(=O)n2C [Tipifarnib] + COc1cc2c(Oc3ccc(NC(=O)C4(C(=O)Nc5ccc(F)cc5)CC4)cc3F)ccnc2cc1OCCCN1CCOCC1 [Foretinib] (partner 0.25 µM)
Summary of the method: as §1

[4] = compound: Cn1cncc1[C@@](N)(c1ccc(Cl)cc1)c1ccc2c(c1)c(-c1cccc(Cl)c1)cc(=O)n2C [Tipifarnib] + Nc1nc2[nH]cc(CCc3ccc(C(=O)N[C@@H](CCC(=O)O)C(=O)O)cc3)c2c(=O)[nH]1 [Pemetrexed] (partner 0.2 µM)
Summary of the method: as §1

[5] = compound: Cn1cncc1[C@@](N)(c1ccc(Cl)cc1)c1ccc2c(c1)c(-c1cccc(Cl)c1)cc(=O)n2C [Tipifarnib] + CC(=O)c1c(C)c2cnc(Nc3ccc(N4CCNCC4)cn3)nc2n(C2CCCC2)c1=O [Palbociclib] (partner 0.5 µM)
Summary of the method: as §1

[6] = compound: Cn1cncc1[C@@](N)(c1ccc(Cl)cc1)c1ccc2c(c1)c(-c1cccc(Cl)c1)cc(=O)n2C [Tipifarnib] + Cc1nc(Nc2ncc(C(=O)Nc3c(C)cccc3Cl)s2)cc(N2CCN(CCO)CC2)n1 [Dasatinib] (partner 0.075 µM)
Summary of the method: as §1

[7] = compound: Cn1cncc1[C@@](N)(c1ccc(Cl)cc1)c1ccc2c(c1)c(-c1cccc(Cl)c1)cc(=O)n2C [Tipifarnib] + O=C(c1cc(Cc2n[nH]c(=O)c3ccccc23)ccc1F)N1CCN(C(=O)C2CC2)CC1 [Olaparib] (partner 8 µM)
Summary of the method: as §1

[8] = compound: Cn1cncc1[C@@](N)(c1ccc(Cl)cc1)c1ccc2c(c1)c(-c1cccc(Cl)c1)cc(=O)n2C [Tipifarnib] + CCNC(=O)c1noc(-c2cc(C(C)C)c(O)cc2O)c1-c1ccc(CN2CCOCC2)cc1 [Luminespib] (partner 0.01 µM)
Summary of the method: as §1

[9] = compound: Cn1cncc1[C@@](N)(c1ccc(Cl)cc1)c1ccc2c(c1)c(-c1cccc(Cl)c1)cc(=O)n2C [Tipifarnib] + Nc1ncn([C@H]2C[C@H](O)[C@@H](CO)O2)c(=O)n1 [Decitabine] (partner 2 µM)
Summary of the method: as §1

[10] = compound: Cn1cncc1[C@@](N)(c1ccc(Cl)cc1)c1ccc2c(c1)c(-c1cccc(Cl)c1)cc(=O)n2C [Tipifarnib] + COc1cccc2cc(-c3nc([C@H]4CC[C@H](C(=O)O)CC4)n4ncnc(N)c34)[nH]c12 [OSI-027] (partner 0.5 µM)
Summary of the method: as §1

[11] = compound: Cn1cncc1[C@@](N)(c1ccc(Cl)cc1)c1ccc2c(c1)c(-c1cccc(Cl)c1)cc(=O)n2C [Tipifarnib] + N=C(N)NC(=N)NCCc1ccccc1 [Phenformin] (partner 250 µM)
Summary of the method: as §1

[12] = compound: Cn1cncc1[C@@](N)(c1ccc(Cl)cc1)c1ccc2c(c1)c(-c1cccc(Cl)c1)cc(=O)n2C [Tipifarnib] + NC(=O)Nc1cc(-c2cccc(F)c2)sc1C(=O)N[C@H]1CCCNC1 [AZD7762] (partner 0.2 µM)
Summary of the method: as §1

[13] = compound: Cn1cncc1[C@@](N)(c1ccc(Cl)cc1)c1ccc2c(c1)c(-c1cccc(Cl)c1)cc(=O)n2C [Tipifarnib] + O=C(CCCCCCC(=O)Nc1ccccc1)NO [Vorinostat] (partner 1 µM)
Summary of the method: as §1

[14] = compound: Cn1cncc1[C@@](N)(c1ccc(Cl)cc1)c1ccc2c(c1)c(-c1cccc(Cl)c1)cc(=O)n2C [Tipifarnib] + CC(=O)Nc1cccc(-n2c(=O)n(C3CC3)c(=O)c3c(Nc4ccc(I)cc4F)n(C)c(=O)c(C)c32)c1 [Trametinib] (partner 0.02 µM)
Summary of the method: as §1

## SW 900
[1]; 0.01 µM
  relative viability: 0.697
[1]; 0.03162 µM
  relative viability: 0.282
[1]; 0.1 µM
  relative viability: 0.486
[1]; 0.3162 µM
  relative viability: 0.338
[1]; 1 µM
  relative viability: 0.272
[2]; first compound 0.01 µM
  relative viability: 0.335
[2]; first compound 0.03162 µM
  relative viability: 0.261
[2]; first compound 0.1 µM
  relative viability: 0.289
[2]; first compound 0.3162 µM
  relative viability: 0.31
[2]; first compound 1 µM
  relative viability: 0.273
[3]; first compound 0.01 µM
  relative viability: 0.716
[3]; first compound 0.03162 µM
  relative viability: 0.481
[3]; first compound 0.1 µM
  relative viability: 0.381
[3]; first compound 0.3162 µM
  relative viability: 0.39
[3]; first compound 1 µM
  relative viability: 0.412
[4]; first compound 0.01 µM
  relative viability: 0.397
[4]; first compound 0.03162 µM
  relative viability: 0.272
[4]; first compound 0.1 µM
  relative viability: 0.455
[4]; first compound 0.3162 µM
  relative viability: 0.303
[4]; first compound 1 µM
  relative viability: 0.299
[5]; first compound 0.01 µM
  relative viability: 0.454
[5]; first compound 0.03162 µM
  relative viability: 0.415
[5]; first compound 0.1 µM
  relative viability: 0.347
[5]; first compound 0.3162 µM
  relative viability: 0.332
[5]; first compound 1 µM
  relative viability: 0.354
[6]; first compound 0.01 µM
  relative viability: 0.476
[6]; first compound 0.03162 µM
  relative viability: 0.289
[6]; first compound 0.1 µM
  relative viability: 0.269
[6]; first compound 0.3162 µM
  relative viability: 0.158
[6]; first compound 1 µM
  relative viability: 0.289
[7]; first compound 0.01 µM
  relative viability: 0.508
[7]; first compound 0.03162 µM
  relative viability: 0.545
[7]; first compound 0.1 µM
  relative viability: 0.494
[7]; first compound 0.3162 µM
  relative viability: 0.406
[7]; first compound 1 µM
  relative viability: 0.381
[8]; first compound 0.01 µM
  relative viability: 0.188
[8]; first compound 0.03162 µM
  relative viability: 0.188
[8]; first compound 0.1 µM
  relative viability: 0.196
[8]; first compound 0.3162 µM
  relative viability: 0.167
[8]; first compound 1 µM
  relative viability: 0.185
[9]; first compound 0.01 µM
  relative viability: 0.387
[9]; first compound 0.03162 µM
  relative viability: 0.39
[9]; first compound 0.1 µM
  relative viability: 0.294
[9]; first compound 0.3162 µM
  relative viability: 0.368
[9]; first compound 1 µM
  relative viability: 0.402
[10]; first compound 0.01 µM
  relative viability: 0.309
[10]; first compound 0.03162 µM
  relative viability: 0.1
[10]; first compound 0.1 µM
  relative viability: 0.27
[10]; first compound 0.3162 µM
  relative viability: 0.189
[10]; first compound 1 µM
  relative viability: 0.18
[11]; first compound 0.01 µM
  relative viability: 0.405
[11]; first compound 0.03162 µM
  relative viability: 0.216
[11]; first compound 0.1 µM
  relative viability: 0.365
[11]; first compound 0.3162 µM
  relative viability: 0.244
[11]; first compound 1 µM
  relative viability: 0.207
[12]; first compound 0.01 µM
  relative viability: 0.464
[12]; first compound 0.03162 µM
  relative viability: 0.372
[12]; first compound 0.1 µM
  relative viability: 0.331
[12]; first compound 0.3162 µM
  relative viability: 0.292
[12]; first compound 1 µM
  relative viability: 0.259
[13]; first compound 0.01 µM
  relative viability: 0.435
[13]; first compound 0.03162 µM
  relative viability: 0.144
[13]; first compound 0.1 µM
  relative viability: 0.278
[13]; first compound 0.3162 µM
  relative viability: 0.227
[13]; first compound 1 µM
  relative viability: 0.187
[14]; first compound 0.01 µM
  relative viability: 0.517
[14]; first compound 0.03162 µM
  relative viability: 0.465
[14]; first compound 0.1 µM
  relative viability: 0.489
[14]; first compound 0.3162 µM
  relative viability: 0.478
[14]; first compound 1 µM
  relative viability: 0.332
